Assay results from patent US7351731B2, “Azole derivatives and methods for making the same” (Board of Governors for Higher Education, State of Rhode …, priority 2005, dated 2008).
In brackets after ≈: the same amount, converted by molar mass.

Columns and labels:
C. albicans ATCC 14053 [1] = experiment: MIC microdilution susceptibility testing, C. albicans in RPMI; type: cell-based, Candida albicans; settings: for MIC: Candida albicans
Method: (§1) Microorganisnis. […] Stock cultures were kept on Sabouraud dextrose agar (SDA; Becton-Dickinson and Co., Sparks, Md.). Subcultures were prepared on SDA at 35-37° C. Suspension cultures were prepared by inoculation of single colonies in 7 ml of normal saline solution.
(§2) Test compounds were dissolved in DMSO (0.56 mg/ml) and stored at 0° C. Working dilutions were made in RPMI or SDB medium. […] The final maximum concentration of DMSO in the assays was 5% (v/v).
(§3) Microdilutions for control experiments with C. albicans, A. niger, and C. neoformans were the modified method of National Committee for Clinical Laboratory Standards (NCCLS) method as described by Galgiani and by the more recent NCCLS M27-A microdilution methods as described previously. Galgiani, J. N. Antimicrob. Agents Chemother. […] Reference method for broth dilution antifungal susceptibility testing for yeasts. Approval standard. […] 9; C. arballeira, N. M., et al. Arch. Pharm.-Pharm. […] Dilutions were prepared in 0.1 ml of RPMI or SDB; the inocula were either 10^4 C. albicans or C. neoformans cells or A. niger spores. The tubes were incubated for 24-48 h at 36±1° C., and turbidity was read visually.

C. albicans ATCC 14053 [2] = experiment: MIC microdilution susceptibility testing, C. albicans in SDB; type: cell-based, Candida albicans; settings: 24-48 h, average of three experiments; for MIC: Candida albicans
Method: as §1, §2, §3

C. neoformans ATCC 66031 = experiment: MIC microdilution susceptibility testing, C. neoformans in SDB; type: cell-based, Cryptococcus neoformans; settings: SDB medium, 35-37° C., 24-48 h, average of three experiments; for MIC: Cryptococcus neoformans, ATCC66031
Method: as §1, §2, §3

A. niger ATCC 16404 = experiment: MIC microdilution susceptibility testing, A. niger in SDB; type: cell-based, Aspergillus niger; settings: SDB medium, 35-37° C., 24-48 h, average of three experiments; for MIC: Aspergillus niger, ATCC16404
Method: as §1, §2, §3

[3] = RPMI medium pH 6.9, 35-37° C., 24-48 h, average of three experiments
[4] = ATCC14053, RPMI medium pH 6.9, 35-37° C., 24-48 h, average of three experiments, read-out: MIC C. albicans ATCC 14053, RPMI
[5] = ATCC14053, pH 5.6, SDB medium pH 5.6, 35-37° C.

MIC (C. albicans ATCC 14053 [1]; [4])	MIC (C. albicans ATCC 14053 [2]; [5])	MIC (A. niger ATCC 16404)	MIC (C. neoformans ATCC 66031)	Compound	MIC C. albicans ATCC 14053, RPMI (C. albicans ATCC 14053 [1]; [3])	MIC C. albicans ATCC 14053, SDB (C. albicans ATCC 14053 [2]; SDB medium pH 5.6, 35-37° C.)	MIC C. neoformans ATCC 66031, SDB (C. neoformans ATCC 66031)	MIC A. niger ATCC 16404, SDB (A. niger ATCC 16404)	MIC (C. albicans ATCC 14053 [1]; ATCC14053, pH 6.9, read-out: MIC C. albicans ATCC 14053, RPMI)	MIC (C. albicans ATCC 14053 [2]; ATCC14053, SDB medium pH 5.6, 35-37° C.)
				CC(=O)OC(Cn1cncn1)(Cn1cncn1)c1ccc(F)cc1F [Compound 1a, O-Acetylfluconazole]	>1,420 μg/mL	1,420 μg/mL	>1,420 μg/mL	≧1,420 μg/mL		
791 µg/mL (≈ 4590 µM)	99 µg/mL (≈ 575 µM)	< 12 µg/mL		CCCCCCCCCC(=O)O [Decanoic acid, reference compound]						
	87 µg/mL (≈ 505 µM)	87 µg/mL (≈ 505 µM)	28 µg/mL (≈ 162 µM)	CCCCCCCCCCCO [Compound 1-Undecanol, 1-Undecanol, reference compound]						
				CCC(Br)C(=O)OC(Cn1cncn1)(Cn1cncn1)c1ccc(F)cc1F (centres unmarked) [Compound 1d, O-2-Bromobutyrylfluconazole]	319 µg/mL (≈ 701 µM)	636 µg/mL (≈ 1400 µM)	>1,276 μg/mL	≧1,276 μg/mL		
365 µg/mL (≈ 821 µM)	> 731 µg/mL	> 731 µg/mL	46 µg/mL (≈ 103 µM)	Cc1ccc(S(=O)(=O)C(Cn2cncn2)(Cn2cncn2)c2ccc(F)cc2F)cc1 [Tosyl]						
155 µg/mL (≈ 555 µM)	155 µg/mL (≈ 555 µM)	78 µg/mL (≈ 279 µM)	19 µg/mL (≈ 68 µM)	CCCCCCCCCCC(Br)C(=O)O (centres unmarked) [2-Bromolauric acid, reference compound]						
				CCCCCCCCCCCCC(Br)C(=O)OC(Cn1cncn1)(Cn1cncn1)c1ccc(F)cc1F (centres unmarked) [Compound 1i, O-2-Bromomyristoylfluconazole]	731 µg/mL (≈ 1230 µM)	731 µg/mL (≈ 1230 µM)	731 µg/mL (≈ 1230 µM)	>731 µg/mL		
2.3 µg/mL (≈ 7.51 µM)	≥ 4440 µg/mL	> 580 µg/mL	2.4 µg/mL (≈ 7.84 µM)	OC(Cn1cncn1)(Cn1cncn1)c1ccc(F)cc1F [FLC, 1,3-bis(1H-1,2,4-triazol-1-yl)-2-(2,4-difluorophenyl)-propan-2-ol, reference compound]						
				CCCCCCCCCCC(Br)C(=O)OC(Cn1cncn1)(Cn1cncn1)c1ccc(F)cc1F (centres unmarked) [Compound 1h, O-2-Bromolauroylfluconazole]	1,466 μg/mL	1,466 μg/mL	1,466 μg/mL	≧1,466 μg/mL		
				CC(=O)OC[C@H]1O[C@@H](OP(=O)(OCCC#N)OC(Cn2cncn2)(Cn2cncn2)c2ccc(F)cc2F)[C@H](OC(C)=O)[C@@H](OC(C)=O)[C@@H]1OC(C)=O (stereo partly drawn) [Compound 4a, 2-Cyanoethyl-[1-(β-D-2,3,4,6-glucosyltetraacetate)]fluconazole phosphate]		1,999 μg/mL	551 µg/mL	1,999 μg/mL		
				O=C(OC(Cn1cncn1)(Cn1cncn1)c1ccc(F)cc1F)c1ccccc1O [Compound 1l, O-Salicylfluconazole]	≧1,212 μg/mL	>1,212 μg/mL	>1,212 μg/mL	>1,212 μg/mL		
				C=CCCCCCCCCCO [ω-Undecylenyl alcohol, reference compound]		110 µg/mL (≈ 646 µM)	14 µg/mL (≈ 82.2 µM)	27 µg/mL (≈ 159 µM)		
645 µg/mL (≈ 1750 µM)	1290 µg/mL (≈ 3500 µM)	1290 µg/mL (≈ 3500 µM)	40 µg/mL (≈ 109 µM)	CS(=O)(=O)C(Cn1cncn1)(Cn1cncn1)c1ccc(F)cc1F [Mesyl]						
				CCCCCCCCCCCCCC(=O)OC(Cn1cncn1)(Cn1cncn1)c1ccc(F)cc1F [Compound 1b, O-Tetradecanoylfluconazole]	718 µg/mL (≈ 1390 µM)	718 µg/mL (≈ 1390 µM)	718 µg/mL (≈ 1390 µM)	≧718 μg/mL		
				CC(=O)N[C@H]1[C@H](OP(=O)(OCCC#N)OC(Cn2cncn2)(Cn2cncn2)c2ccc(F)cc2F)O[C@H](COC(C)=O)[C@@H](OC(C)=O)[C@@H]1OC(C)=O (stereo partly drawn) [Compound 4b, 2-Cyanoethyl-[1-(2-acetamido-2-deoxy-3,4,6-tri-O-acetyl-β-D-glucopyranosidyl)]fluconazole phosphate]		>3,399 μg/mL	306 µg/mL	1,699 μg/mL		
701 µg/mL (≈ 1900 µM)	> 701 µg/mL	701 µg/mL (≈ 1900 µM)	22 µg/mL (≈ 59.6 µM)	Fc1ccc(C(Br)(Cn2cncn2)Cn2cncn2)c(F)c1 [Br]						

Compound	MIC (C. albicans ATCC 14053 [1]; [4])	MIC (C. albicans ATCC 14053 [2]; [5])	MIC (A. niger ATCC 16404)	MIC (C. neoformans ATCC 66031)	MIC C. albicans ATCC 14053, RPMI (C. albicans ATCC 14053 [1]; [3])	MIC C. albicans ATCC 14053, SDB (C. albicans ATCC 14053 [2]; SDB medium pH 5.6, 35-37° C.)	MIC C. neoformans ATCC 66031, SDB (C. neoformans ATCC 66031)	MIC A. niger ATCC 16404, SDB (A. niger ATCC 16404)	MIC (C. albicans ATCC 14053 [1]; ATCC14053, pH 6.9, read-out: MIC C. albicans ATCC 14053, RPMI)	MIC (C. albicans ATCC 14053 [2]; ATCC14053, SDB medium pH 5.6, 35-37° C.)
CCC(Br)C(=O)O (centres unmarked) [2-Bromobutyric acid, reference compound]				> 513 µg/mL					513 µg/mL (≈ 3070 µM)	> 513 µg/mL
